From patent US8658659B2, “Substituted oxazole derivatives and their use as tyrosine kinase inhibitors” (AB Science, priority 2005, dated 2014)

SMILES	melting point [°C]
Cc1ccc(Nc2nc3cc(F)ccc3o2)cc1Nc1ncc(-c2ccncc2)o1 [Compound 009, N1-(5-Fluoro-benzooxazol-2-yl)-4-methyl-N3-(5-pyridin-4-yl-oxazol-2-yl)-benzene-1,3-diamine]	170
CCS(=O)(=O)c1ccc2oc(Nc3ccc(C)c(Nc4ncc(-c5ccncc5)o4)c3)nc2c1 [Compound 007, N1-(5-Ethanesulfonyl-benzooxazol-2-yl)-4-methyl-N3-(5-pyridin-4-yl-oxazol-2-yl)-benzene-1,3-diamine]	252
Cc1ccc(Nc2nc3ccccc3o2)cc1Nc1ncc(-c2ccc(C#N)cc2)o1 [Compound 002, 4-{2-[5-(Benzooxazol-2-ylamino)-2-methyl-phenylamino]-oxazol-5-yl}-benzonitrile]	236
Cc1ccc(Nc2nc3ccccc3o2)cc1Nc1ncc(-c2cccnc2)o1 [Compound 004, N1-Benzooxazol-2-yl-4-methyl-N3-(5-pyridin-3-yl-oxazol-2-yl)-benzene-1,3-diamine]	238
Cc1ccc(N(C)CC(=O)c2ccc(F)cc2)cc1Nc1ncc(-c2ccncc2)o1 [Compound 024, 1-(4-Fluoro-phenyl)-2-{methyl-[4-methyl-3-(5-pyridin-4-yl-oxazol-2-ylamino)-phenyl]-amino}-ethanone]	230
Cc1ccc(Nc2nc3ccc(F)cc3o2)cc1Nc1ncc(-c2ccncc2)o1 [Compound 010, N1-(6-Fluoro-benzooxazol-2-yl)-4-methyl-N3-(5-pyridin-4-yl-oxazol-2-yl)-benzene-1,3-diamine]	260
Cc1ccc(NS(=O)(=O)Cc2ccccc2)cc1Nc1ncc(-c2ccncc2)o1 [Compound 001, N-[4-Methyl-3-(5-pyridin-4-yl-oxazol-2-ylamino)-phenyl]-C-phenyl-methane sulfonamide]	258
Cc1ccc(C(=O)CCc2ccccc2)cc1Nc1ncc(-c2ccncc2)o1 [Compound 017, 1-[4-Methyl-3-(5-pyridin-4-yl-oxazol-2-ylamino)-phenyl]-3-phenyl-propan-1-one]	138
Cc1ccc(C(=O)CCc2ccccc2)cc1Nc1ncc(-c2ccc(C#N)cc2)o1 [Compound 020, 4-{2-[2-Methyl-5-(3-phenyl-propionyl)-phenylamino]-oxazol-5-yl}-benzonitrile]	138
Cc1ccc(Nc2nc3cc(Cl)ccc3o2)cc1Nc1ncc(-c2ccncc2)o1 [Compound 005, N1-(5-Chloro-benzooxazol-2-yl)-4-methyl-N3-(5-pyridin-4-yl-oxazol-2-yl)-benzene-1,3-diamine]	229
Cc1ccc(NCC(=O)c2ccccc2)cc1Nc1ncc(-c2ccncc2)o1 [Compound 026, 2-[4-Methyl-3-(5-pyridin-4-yl-oxazol-2-ylamino)-phenylamino]-1-phenyl-ethanone]	152
Cc1ccc(NCC(=O)c2ccc(F)cc2)cc1Nc1ncc(-c2ccncc2)o1 [Compound 023, 1-(4-Fluoro-phenyl)-2-[4-methyl-3-(5-pyridin-4-yl-oxazol-2-ylamino)-phenylamino]-ethanone]	202
CC(=O)c1ccc(C)c(Nc2ncc(-c3ccc(C#N)cc3)o2)c1 [Compound 018, 4-[2-(5-Acetyl-2-methyl-phenylamino)-oxazol-5-yl]-benzonitrile]	240
Cc1ccc(N(C)CC(=O)c2ccc(C#N)cc2)cc1Nc1ncc(-c2ccncc2)o1 [Compound 025, 4-({Methyl-[4-methyl-3-(5-pyridin-4-yl-oxazol-2-ylamino)-phenyl]-amino}-acetyl)-benzonitrile]	218
Cc1ccc(Nc2nc3ccccc3s2)cc1Nc1ncc(-c2ccc(C#N)cc2)o1 [Compound 003, 4-{2-[5-(Benzothiazol-2-ylamino)-2-methyl-phenylamino]-oxazol-5-yl}-benzonitrile]	216 to 220
Cc1ccc(Nc2nc3ccc(Cl)cc3o2)cc1Nc1ncc(-c2ccncc2)o1 [Compound 006, N1-(6-Chloro-benzooxazol-2-yl)-4-methyl-N3-(5-pyridin-4-yl-oxazol-2-yl)-benzene-1,3-diamine]	> 260

Now from value to molecule:

melting point [°C]	SMILES
157	Cc1ccc(C(=O)CCc2cccc(F)c2)cc1Nc1ncc(-c2ccc(C#N)cc2)o1 [Compound 021, 4-(2-{5-[3-(3-Fluoro-phenyl)-propionyl]-2-methyl-phenylamino}-oxazol-5-yl)-benzonitrile]
199	Cc1ccc(NCC(=O)c2ccc(F)cc2)cc1Nc1ncc(-c2ccc(C#N)cc2)o1 [Compound 027, 4-(2-{5-[2-(4-Fluoro-phenyl)-2-oxo-ethylamino]-2-methyl-phenylamino}-oxazol-5-yl)-benzonitrile]
198 to 200	Cc1ccc(N2CCN(c3cccc(C(F)(F)F)c3)C2=O)cc1Nc1ncc(-c2ccncc2)o1 [Compound 015, 1-[4-Methyl-3-(5-pyridin-4-yl-oxazol-2-ylamino)-phenyl]-3-(3-trifluoromethyl-phenyl)-imidazolidin-2-one]
175	Cc1ccc(C(=O)CCc2ccc(F)cc2)cc1Nc1ncc(-c2ccc(C#N)cc2)o1 [Compound 019, 4-(2-{5-[3-(4-Fluoro-phenyl)-propionyl]-2-methyl-phenylamino}-oxazol-5-yl)-benzonitrile]
> 260	CC(=O)c1ccc(C)c(Nc2ncc(-c3ccc(C(N)=O)cc3)o2)c1 [Compound 022, 4-[2-(5-Acetyl-2-methyl-phenylamino)-oxazol-5-yl]-benzamide]
221	Cc1ccc(N2CCN(c3cccc(F)c3)C2=O)cc1Nc1ncc(-c2ccc(C#N)cc2)o1 [Compound 011, 4-(2-{5-[3-(3-Fluoro-phenyl)-2-oxo-imidazolidin-1-yl]-2-methyl-phenylamino}-oxazol-5-yl)-benzonitrile]
> 260	Cc1ccc(N2CCN(c3cccc(F)c3)C2=O)cc1Nc1ncc(-c2ccc(C(N)=O)cc2)o1 [Compound 013, 4-(2-{5-[3-(3-Fluoro-phenyl)-2-oxo-imidazolidin-1-yl]-2-methyl-phenylamino}-oxazol-5-yl)-benzamide]
> 260	Cc1ccc(N2CCN(c3cccc(C#N)c3)C2=O)cc1Nc1ncc(-c2ccc(C#N)cc2)o1 [Compound 012, 4-(2-{5-[3-(3-cyano-phenyl)-2-oxo-imidazolidin-1-yl]-2-methyl-phenylamino}-oxazol-5-yl)-benzonitrile]
